Experiments:
[1] = molecular target: TRPV1 channels (Homo sapiens, UniProt Q8NER1); assay: Blocking of TRPV1 channel activation by capsaicin; format: cell-based; conditions: capsaicin 100 nM; FIG. 1A; read-out: IC50 against capsaicin
[2] = system: nociceptive response to formalin injected into the rat paw; assay: Formalin test, injection into the periaqueductal grey (PAG); format: in vivo
Text: (§1) The compounds of formula I are novel agents against […], acting by enhancing endocannabinoid levels (via FAAH inhibition) and at the same time by antagonizing TRPV1.

[3] = system: anandamide levels; assay: Anandamide levels in the PAG after intra-PAG injection; format: in vivo; conditions: rat, 4 μg/rat intra-PAG, measured 20 min following injection
Text: as §1

[4] = system: nocifensive response to formalin; assay: Formalin test, injection into the paw; format: in vivo; conditions: injected into the paw; counteracted by AM251 and occluded by capsazepine
Text: as §1

[5] = molecular target: fatty acid amide hydrolase (FAAH) (Rattus norvegicus, UniProt P97612)
fatty acid amide hydrolase (FAAH), sequence (P97612 whole entry): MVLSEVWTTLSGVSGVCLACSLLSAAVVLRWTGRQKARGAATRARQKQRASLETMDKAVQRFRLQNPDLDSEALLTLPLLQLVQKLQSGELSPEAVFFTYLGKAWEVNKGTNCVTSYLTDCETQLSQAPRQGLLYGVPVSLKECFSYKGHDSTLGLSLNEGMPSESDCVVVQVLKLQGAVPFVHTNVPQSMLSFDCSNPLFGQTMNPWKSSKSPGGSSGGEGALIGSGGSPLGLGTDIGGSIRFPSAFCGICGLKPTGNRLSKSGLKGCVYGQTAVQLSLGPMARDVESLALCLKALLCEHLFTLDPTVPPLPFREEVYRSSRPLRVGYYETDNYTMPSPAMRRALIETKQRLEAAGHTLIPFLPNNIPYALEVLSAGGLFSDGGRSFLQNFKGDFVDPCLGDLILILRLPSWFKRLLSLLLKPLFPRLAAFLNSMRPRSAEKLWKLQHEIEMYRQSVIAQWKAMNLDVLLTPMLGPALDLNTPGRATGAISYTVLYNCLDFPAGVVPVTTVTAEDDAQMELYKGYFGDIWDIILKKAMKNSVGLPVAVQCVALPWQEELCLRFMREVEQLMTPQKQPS

TRPV1 channels, sequence (Q8NER1 whole entry): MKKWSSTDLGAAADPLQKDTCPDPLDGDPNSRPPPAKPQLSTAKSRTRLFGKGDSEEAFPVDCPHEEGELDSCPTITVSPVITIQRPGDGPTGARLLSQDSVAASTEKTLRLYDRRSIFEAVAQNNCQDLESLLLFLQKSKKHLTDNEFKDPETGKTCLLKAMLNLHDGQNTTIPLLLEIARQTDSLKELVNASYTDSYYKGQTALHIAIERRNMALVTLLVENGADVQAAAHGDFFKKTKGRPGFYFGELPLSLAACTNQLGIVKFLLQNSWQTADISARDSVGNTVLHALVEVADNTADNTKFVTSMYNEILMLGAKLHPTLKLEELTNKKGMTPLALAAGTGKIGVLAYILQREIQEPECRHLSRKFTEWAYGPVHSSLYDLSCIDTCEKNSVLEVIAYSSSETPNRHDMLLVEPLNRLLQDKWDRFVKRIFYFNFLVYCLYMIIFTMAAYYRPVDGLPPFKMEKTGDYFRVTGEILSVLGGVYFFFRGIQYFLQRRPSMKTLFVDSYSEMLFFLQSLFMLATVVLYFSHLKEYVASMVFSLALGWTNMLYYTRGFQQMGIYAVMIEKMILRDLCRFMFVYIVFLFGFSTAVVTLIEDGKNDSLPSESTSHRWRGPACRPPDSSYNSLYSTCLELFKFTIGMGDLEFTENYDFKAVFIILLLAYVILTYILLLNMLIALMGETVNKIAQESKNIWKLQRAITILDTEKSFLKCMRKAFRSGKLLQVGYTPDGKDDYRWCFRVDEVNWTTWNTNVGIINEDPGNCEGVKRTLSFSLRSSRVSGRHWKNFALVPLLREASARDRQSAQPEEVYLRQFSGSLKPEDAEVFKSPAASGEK

Structure (SMILES): CCCCCC=CCC=CCC=CCC=CCCCC(=O)NCCc1c[nH]c2ccc(O)cc12 [AA-5-HT, N-arachidonoyl-serotonin]
- IC50 [1]: 0.13 µM
- nociceptive response to formalin ([2]; 4 μg/rat injected directly into PAG): potently inhibits both phases
- anti-hyperalgesic effect in presence of CB1 receptor antagonist AM251 ([2]; intra-PAG, with AM251 (nmol/rat)): counteracted
- anti-hyperalgesic effect in presence of TRPV1 antagonist capsazepine ([2]; intra-PAG, with capsazepine 6 nmol/rat): occluded
- anandamide levels in the PAG [3]: elevated
- nocifensive response to formalin [4]: selectively block the 2nd, inflammatory phase
- type of FAAH inhibition [5]: mixed inhibitors
